Consider one compound from PMC5218480 (PLoS ONE, 2017).

The experiment relates to MV-4-11 cells. As to the kind of experiment: Gene expression microarray analysis (Affymetrix PrimeView) and GSEA. The class given is cell-based, human. The arrangement: RFU PODN (11730768_x_at) / Fold change /veh PODN (11730768_x_at) / RFU LINC00158 (11744669_a_at) / Fold change /veh LINC00158 (11744669_a_at) / RFU DUSP10 (11751237_a_at) / Fold change /veh DUSP10 (11751237_a_at) / RFU ID3 (11757404_x_at) / Fold change /veh ID3 (11757404_x_at) / RFU PLEKHG5 (11737974_s_at) / Fold change /veh PLEKHG5 (11737974_s_at) / RFU LRRC4B (11730491_at) / Fold change /veh LRRC4B (11730491_at) / RFU GIMAP4 (11747438_a_at) / Fold change /veh GIMAP4 (11747438_a_at) / RFU KRT8 (11758183_x_at) / Fold change /veh KRT8 (11758183_x_at) / RFU CNN1 (11734310_a_at) / Fold change /veh CNN1 (11734310_a_at) / RFU VPS37D (11726825_at) / Fold change /veh VPS37D (11726825_at) / RFU C10orf10 (11716522_x_at) / Fold change /veh C10orf10 (11716522_x_at) / RFU KIR2DL2 /// KIR2DL4 /// KIR2DL5A /// KIR2DL5B /// KIR2DS1 /// KIR2DS2 /// KIR2DS3 /// KIR2DS4 /// KIR3DL3 /// KIR3DL3 /// KIR3DS1 (11738374_at) / Fold change /veh KIR2DL2 /// KIR2DL4 /// KIR2DL5A /// KIR2DL5B /// KIR2DS1 /// KIR2DS2 /// KIR2DS3 /// KIR2DS4 /// KIR3DL3 /// KIR3DL3 /// KIR3DS1 (11738374_at) / RFU C1QL1 (11718748_at) / Fold change /veh C1QL1 (11718748_at) / RFU TMPRSS4 (11747572_a_at) / Fold change /veh TMPRSS4 (11747572_a_at) / RFU HAMP (11756126_x_at) / Fold change /veh HAMP (11756126_x_at) / RFU RNFT2 (11725882_a_at) / Fold change /veh RNFT2 (11725882_a_at) / RFU NR4A2 (11747474_a_at) / Fold change /veh NR4A2 (11747474_a_at) / RFU ABCC12 (11746883_a_at) / Fold change /veh ABCC12 (11746883_a_at) / RFU TMEM136 (11760407_x_at) / Fold change /veh TMEM136 (11760407_x_at) / RFU CLDN22 /// WWC2 (11732394_at) / Fold change /veh CLDN22 /// WWC2 (11732394_at) / RFU HLA-DPB1 (11760878_x_at) / Fold change /veh HLA-DPB1 (11760878_x_at) / RFU SPINT1 (11716480_a_at) / Fold change /veh SPINT1 (11716480_a_at) / RFU GAP43 (11754022_s_at) / Fold change /veh GAP43 (11754022_s_at) / RFU A4GNT (11735810_at) / Fold change /veh A4GNT (11735810_at) / RFU PRB3 (11715151_x_at) / Fold change /veh PRB3 (11715151_x_at) / RFU TUBB4B (11761932_at) / Fold change /veh TUBB4B (11761932_at) / RFU CAPN14 (11732068_a_at) / Fold change /veh CAPN14 (11732068_a_at) / RFU TMCC2 (11721928_a_at) / Fold change /veh TMCC2 (11721928_a_at) / RFU IRGQ (11745062_a_at) / Fold change /veh IRGQ (11745062_a_at) / RFU FAM174B (11720279_a_at) / Fold change /veh FAM174B (11720279_a_at) / RFU TMPRSS4 (11748680_a_at) / Fold change /veh TMPRSS4 (11748680_a_at) / RFU FAM212B (11763350_a_at) / Fold change /veh FAM212B (11763350_a_at) / RFU PLEKHG5 (11743358_a_at) / Fold change /veh PLEKHG5 (11743358_a_at) / RFU ZSCAN30 (11745921_a_at) / Fold change /veh ZSCAN30 (11745921_a_at) / RFU CMKLR1 (11741424_a_at) / Fold change /veh CMKLR1 (11741424_a_at) / RFU LOC101060620 /// MAPK8IP1 (11723275_at) / Fold change /veh LOC101060620 /// MAPK8IP1 (11723275_at) / RFU SPTSSB (11747773_x_at) / Fold change /veh SPTSSB (11747773_x_at) / RFU PRSS12 (11739890_at) / Fold change /veh PRSS12 (11739890_at) / RFU BIN1 (11741810_x_at) / Fold change /veh BIN1 (11741810_x_at) / RFU WNT11 (11732464_a_at) / Fold change /veh WNT11 (11732464_a_at) / RFU C10orf10 (11716521_a_at) / Fold change /veh C10orf10 (11716521_a_at) / RFU C5orf56 (11738089_at) / Fold change /veh C5orf56 (11738089_at) / RFU CYB561 (11721691_x_at) / Fold change /veh CYB561 (11721691_x_at) / RFU ANKRD19P (11752326_a_at) / Fold change /veh ANKRD19P (11752326_a_at) / RFU OR2T12 /// OR2T33 /// OR2T8 (11738714_s_at) / Fold change /veh OR2T12 /// OR2T33 /// OR2T8 (11738714_s_at) / RFU VCAN (11748164_a_at) / Fold change /veh VCAN (11748164_a_at) / RFU JSRP1 (11732532_at) / Fold change /veh JSRP1 (11732532_at) / RFU KRTAP10-11 (11738290_x_at) / Fold change /veh KRTAP10-11 (11738290_x_at) / RFU MYO3A (11730013_a_at) / Fold change /veh MYO3A (11730013_a_at) / RFU EBF3 (11725865_a_at) / Fold change /veh EBF3 (11725865_a_at) / RFU CAMK2N1 (11719241_x_at) / Fold change /veh CAMK2N1 (11719241_x_at) / RFU C5orf56 (11738088_a_at) / Fold change /veh C5orf56 (11738088_a_at) / RFU OLFML3 (11715873_a_at) / Fold change /veh OLFML3 (11715873_a_at) / RFU LOC100653217 /// NTM (11731650_a_at) / Fold change /veh LOC100653217 /// NTM (11731650_a_at) / RFU MAPK11 (11762145_a_at) / Fold change /veh MAPK11 (11762145_a_at) / RFU FIZ1 (11724087_x_at) / Fold change /veh FIZ1 (11724087_x_at) / RFU OASL (11726364_x_at) / Fold change /veh OASL (11726364_x_at) / RFU SOX15 (11748057_x_at) / Fold change /veh SOX15 (11748057_x_at) / RFU CD79A (11719716_a_at) / Fold change /veh CD79A (11719716_a_at) / RFU HIST1H1D (11736915_at) / Fold change /veh HIST1H1D (11736915_at) / RFU CASKIN2 (11723855_a_at) / Fold change /veh CASKIN2 (11723855_a_at) / RFU LOC730098 (11760151_x_at) / Fold change /veh LOC730098 (11760151_x_at) / RFU OR4N2 (11742367_at) / Fold change /veh OR4N2 (11742367_at) / RFU PRRT2 (11749266_a_at) / Fold change /veh PRRT2 (11749266_a_at) / RFU SNX32 (11753110_a_at) / Fold change /veh SNX32 (11753110_a_at) / RFU CDHR5 (11726645_a_at) / Fold change /veh CDHR5 (11726645_a_at) / RFU RCAN1 (11760418_a_at) / Fold change /veh RCAN1 (11760418_a_at) / RFU FAM167A (11723789_a_at) / Fold change /veh FAM167A (11723789_a_at) / RFU FAM26E (11764081_at) / Fold change /veh FAM26E (11764081_at) / RFU ISYNA1 (11749810_s_at) / Fold change /veh ISYNA1 (11749810_s_at) / RFU ACY1 (11761880_at) / Fold change /veh ACY1 (11761880_at) / RFU 11764098_at / Fold change /veh 11764098_at / RFU SAMD14 (11745864_x_at) / Fold change /veh SAMD14 (11745864_x_at) / RFU NPB (11741838_a_at) / Fold change /veh NPB (11741838_a_at) / RFU TMPRSS6 (11731388_a_at) / Fold change /veh TMPRSS6 (11731388_a_at) / RFU KRTAP10-2 (11738614_at) / Fold change /veh KRTAP10-2 (11738614_at) / RFU ARHGAP8 /// PRR5-ARHGAP8 (11727945_x_at) / Fold change /veh ARHGAP8 /// PRR5-ARHGAP8 (11727945_x_at) / RFU KRTAP5-7 /// NADSYN1 (11734609_at) / Fold change /veh KRTAP5-7 /// NADSYN1 (11734609_at) / RFU RASL12 (11751679_a_at) / Fold change /veh RASL12 (11751679_a_at) / RFU CDKN2B (11736163_a_at) / Fold change /veh CDKN2B (11736163_a_at) / RFU PRF1 (11729649_at) / Fold change /veh PRF1 (11729649_at) / RFU, ZNF638 /// ZNF638-IT1 / Fold change vs veh, ZNF638 /// ZNF638-IT1 / RFU, PANK3 / Fold change vs veh, PANK3 / RFU, SH3YL1 / Fold change vs veh, SH3YL1 / RFU, ZEB2 / Fold change vs veh, ZEB2 / RFU, NRIP1 / Fold change vs veh, NRIP1 / RFU, PTTG1IP / Fold change vs veh, PTTG1IP / RFU, CAPN2 / Fold change vs veh, CAPN2 / RFU, MED14 / Fold change vs veh, MED14 / RFU, SNORA58 / Fold change vs veh, SNORA58 / RFU, C1orf63 / Fold change vs veh, C1orf63 / RFU, LRRFIP1 / Fold change vs veh, LRRFIP1 / RFU, NDUFAF7 / Fold change vs veh, NDUFAF7 / RFU, SLC12A2 / Fold change vs veh, SLC12A2 / RFU, IBTK / Fold change vs veh, IBTK / RFU, ESF1 / Fold change vs veh, ESF1 / Fold change vs veh, TMEM50B / RFU, TAOK1 / Fold change vs veh, TAOK1 / RFU, ACBD3 / Fold change vs veh, ACBD3 / RFU, TMA16 / Fold change vs veh, TMA16 / RFU, RWDD3 / Fold change vs veh, RWDD3 / RFU, BCAT1 / Fold change vs veh, BCAT1 / RFU, EDEM3 / Fold change vs veh, EDEM3 / RFU, TMEM33 / Fold change vs veh, TMEM33 / RFU, WDR75 / Fold change vs veh, WDR75 / RFU, AHCTF1 / Fold change vs veh, AHCTF1 / RFU, TFRC / Fold change vs veh, TFRC / RFU, ZDHHC17 / Fold change vs veh, ZDHHC17 / RFU, NOM1 / Fold change vs veh, NOM1 / RFU, ARL8B / Fold change vs veh, ARL8B / RFU, ZBTB11 / Fold change vs veh, ZBTB11 / RFU, TAMM41 / Fold change vs veh, TAMM41 / RFU, KIAA1704 /// LOC100996395 / Fold change vs veh, KIAA1704 /// LOC100996395 / RFU, ING1 / Fold change vs veh, ING1 / RFU, TRMT61B / Fold change vs veh, TRMT61B / RFU, FUBP3 / Fold change vs veh, FUBP3 / RFU, TP53 / Fold change vs veh, TP53 / RFU, TNKS2 / Fold change vs veh, TNKS2 / RFU, ZFP14 / Fold change vs veh, ZFP14 / RFU, ACTR2 / Fold change vs veh, ACTR2 / RFU, PPP3R1 / Fold change vs veh, PPP3R1 / RFU, PIK3R1 / Fold change vs veh, PIK3R1 / RFU, HNRNPA1 / Fold change vs veh, HNRNPA1 / RFU, RNF170 / Fold change vs veh, RNF170 / RFU, ZNF28 / Fold change vs veh, ZNF28 / RFU, RNGTT / Fold change vs veh, RNGTT / RFU, OGT / Fold change vs veh, OGT / RFU, BRD1 / Fold change vs veh, BRD1 / RFU, MARS / Fold change vs veh, MARS / RFU, ZNF655 / Fold change vs veh, ZNF655 / RFU, FAHD1 / Fold change vs veh, FAHD1 / RFU, BDP1 / Fold change vs veh, BDP1 / RFU, LRRCC1 / Fold change vs veh, LRRCC1 / RFU, ARID1A / Fold change vs veh, ARID1A / RFU, ZNF146 / Fold change vs veh, ZNF146 / RFU, ZNF330 / Fold change vs veh, ZNF330 / RFU, GPN3 / Fold change vs veh, GPN3 / RFU, C9orf123 / Fold change vs veh, C9orf123 / RFU, N4BP2L2 / Fold change vs veh, N4BP2L2 / RFU, ARFIP1 / Fold change vs veh, ARFIP1 / RFU, FAM179B / Fold change vs veh, FAM179B / RFU, BCL10 / Fold change vs veh, BCL10 / RFU, UHRF1BP1L / Fold change vs veh, UHRF1BP1L / RFU, BET1 / Fold change vs veh, BET1 / RFU, CNOT2 / Fold change vs veh, CNOT2 / RFU, ZNF268 / Fold change vs veh, ZNF268 / Fold change vs veh, ZNF507 / RFU, DGCR2 / Fold change vs veh, DGCR2 / RFU, WDSUB1 / Fold change vs veh, WDSUB1 / Fold change vs veh, HSP90B1 /// MIR3652 / RFU, ADSS / Fold change vs veh, ADSS / RFU, GK / Fold change vs veh, GK / RFU, ZNF148 / Fold change vs veh, ZNF148 / RFU, TAF9 / Fold change vs veh, TAF9 / RFU, SLC1A5 / Fold change vs veh, SLC1A5 / RFU, SLMO2 / Fold change vs veh, SLMO2 / RFU, ABCC4 / Fold change vs veh, ABCC4 / RFU, LOC101060439 /// RAP1B / Fold change vs veh, LOC101060439 /// RAP1B / RFU, RFX7 / Fold change vs veh, RFX7 / RFU, GTPBP10 / Fold change vs veh, GTPBP10 / RFU, CNEP1R1 / Fold change vs veh, CNEP1R1 / RFU, BIVM-ERCC5 /// ERCC5 / Fold change vs veh, BIVM-ERCC5 /// ERCC5 / RFU, ILF3 / Fold change vs veh, ILF3 / RFU 11762660_at / Fold change /veh 11762660_at / RFU VCAN (11757783_s_at) / Fold change /veh VCAN (11757783_s_at) / RFU DDX43 (11728927_at) / Fold change /veh DDX43 (11728927_at) / RFU KRT8 (11758188_x_at) / Fold change /veh KRT8 (11758188_x_at) / RFU NKD1 (11759106_at) / Fold change /veh NKD1 (11759106_at) / RFU SRD5A1 (11742802_a_at) / Fold change /veh SRD5A1 (11742802_a_at) / RFU TPSAB1 /// TPSB2 (11721975_s_at) / Fold change /veh TPSAB1 /// TPSB2 (11721975_s_at) / RFU GSTM3 (11746129_a_at) / Fold change /veh GSTM3 (11746129_a_at) / RFU IL23R (11737362_x_at) / Fold change /veh IL23R (11737362_x_at) / RFU TMEM51 (11727254_a_at) / Fold change /veh TMEM51 (11727254_a_at) / RFU PIWIL2 (11732686_x_at) / Fold change /veh PIWIL2 (11732686_x_at) / RFU ORM1 (11744905_x_at) / Fold change /veh ORM1 (11744905_x_at) / RFU CCDC152 (11743942_at) / Fold change /veh CCDC152 (11743942_at) / RFU ECM1 (11717891_a_at) / Fold change /veh ECM1 (11717891_a_at) / RFU IL23R (11748794_a_at) / Fold change /veh IL23R (11748794_a_at) / RFU TNFAIP8L3 (11732012_x_at) / Fold change /veh TNFAIP8L3 (11732012_x_at) / RFU MBOAT4 (11741988_at) / Fold change /veh MBOAT4 (11741988_at) / RFU 11764193_at / Fold change /veh 11764193_at / RFU TMEM53 (11763286_at) / Fold change /veh TMEM53 (11763286_at) / RFU MAGEB2 (11727129_at) / Fold change /veh MAGEB2 (11727129_at) / RFU TMEM200A (11744735_a_at) / Fold change /veh TMEM200A (11744735_a_at) / RFU CCDC152 (11751479_a_at) / Fold change /veh CCDC152 (11751479_a_at) / RFU FAM211A (11726209_a_at) / Fold change /veh FAM211A (11726209_a_at) / RFU RGS16 (11746705_a_at) / Fold change /veh RGS16 (11746705_a_at) / RFU VCAN (11755009_s_at) / Fold change /veh VCAN (11755009_s_at) / RFU RHOB (11743442_s_at) / Fold change /veh RHOB (11743442_s_at) / RFU RGS16 (11720943_a_at) / Fold change /veh RGS16 (11720943_a_at) / RFU RGS16 (11720944_at) / Fold change /veh RGS16 (11720944_at) / RFU, VPS4B / Fold change vs veh, VPS4B / RFU, CREB1 / Fold change vs veh, CREB1 / RFU, DNAJC13 / Fold change vs veh, DNAJC13 / RFU, GNAQ / Fold change vs veh, GNAQ / RFU, CDK5R1 / Fold change vs veh, CDK5R1 / RFU, ZRANB3 / Fold change vs veh, ZRANB3 / RFU, CUL4A / Fold change vs veh, CUL4A / RFU, CCNY / Fold change vs veh, CCNY / RFU, UFL1 / Fold change vs veh, UFL1 / RFU, COG3 / Fold change vs veh, COG3 / RFU, DIAPH2 / Fold change vs veh, DIAPH2 / RFU, SKA2 / Fold change vs veh, SKA2 / RFU, AFF3 / Fold change vs veh, AFF3 / RFU, LMF1 / Fold change vs veh, LMF1 / RFU, IPO11 / Fold change vs veh, IPO11 / RFU, DFFB / Fold change vs veh, DFFB / RFU, FOXP1 / Fold change vs veh, FOXP1 / RFU, CARD8 / Fold change vs veh, CARD8 / RFU, STRN3 / Fold change vs veh, STRN3 / RFU, ADK / Fold change vs veh, ADK / RFU, RASSF2 / Fold change vs veh, RASSF2 / RFU, WIPF1 / Fold change vs veh, WIPF1 / RFU, LARP1B / Fold change vs veh, LARP1B / RFU, RASA1 / Fold change vs veh, RASA1 / RFU, RB1 / Fold change vs veh, RB1 / RFU, PPFIA1 / Fold change vs veh, PPFIA1 / RFU, MAT2A / Fold change vs veh, MAT2A / RFU, CCT5 / Fold change vs veh, CCT5 / RFU, WDR92 / Fold change vs veh, WDR92 / RFU, CUX1 / Fold change vs veh, CUX1 / RFU, TTC7A / Fold change vs veh, TTC7A / RFU, TMEM135 / Fold change vs veh, TMEM135 / RFU, DEPTOR / Fold change vs veh, DEPTOR / RFU, CPM / Fold change vs veh, CPM / RFU, DNAJB6 / Fold change vs veh, DNAJB6 / RFU, CACNA2D3 / Fold change vs veh, CACNA2D3 / RFU, DTX4 / Fold change vs veh, DTX4 / RFU, TFCP2 / Fold change vs veh, TFCP2 / RFU, GMCL1 /// GMCL1P1 / Fold change vs veh, GMCL1 /// GMCL1P1 / RFU, AEBP2 / Fold change vs veh, AEBP2 / RFU, SNHG1 /// SNORD22 /// SNORD25 /// SNORD26 /// SNORD27 /// SNORD28 /// SNORD29 /// SNORD31 / Fold change vs veh, SNHG1 /// SNORD22 /// SNORD25 /// SNORD26 /// SNORD27 /// SNORD28 /// SNORD29 /// SNORD31 / Fold change (Aza/veh), C12orf56 (ProbeSet 11735607_a_at) / Fold change (ACY-1035/veh), C12orf56 (ProbeSet 11735607_a_at) / Fold change (Aza/veh), FGFR1OP (ProbeSet 11751329_s_at) / Fold change (ACY-1035/veh), FGFR1OP (ProbeSet 11751329_s_at) / Fold change (Aza/veh), VPS36 (ProbeSet 11739960_a_at) / Fold change (ACY-1035/veh), VPS36 (ProbeSet 11739960_a_at) / RFU SYPL1 (11715823_x_at) / Fold change /veh SYPL1 (11715823_x_at) / RFU IGFBP7 (11715501_s_at) / Fold change /veh IGFBP7 (11715501_s_at) / RFU REEP3 (11722064_at) / Fold change /veh REEP3 (11722064_at) / RFU IGLL1 (11728026_x_at) / Fold change /veh IGLL1 (11728026_x_at): dose or concentration left out as unconfirmed. Particulars: ProbeSet 11753055_s_at; LIST B.

Take `Nc1ccc(-c2cccs2)cc1NC(=O)c1ccc2c(c1)cc(C1CC1)n2CCN1CCOCC1` [ACY-1035]: the “Fold change vs veh, LOC101060439 /// RAP1B” value is 0.99.
